Marks after values point to notes of the source that are not given here.
What was measured:
keratinocytes HaCaT = assay: Assay of the synthesis of hyaluronic acid in HaCaT keratinocytes (ELISA); type: cell-based, human; conditions: for Percentage stimulation of the synthesis of hyaluronic acid: 48 h, vs control
Experimental: The keratinocytes HaCaT are cultured in DMEM culture medium+10% FCS. The cells are treated with the active ingredients to be tested (Table 1) for 48 h at 37° C. The synthesized hyaluronic acid (HA) is assayed in the culture medium using an ELISA type kit (Echelon®).
The percentage activity was determined as follows • percentage variation compared with the control %p/C=([HA]active ingred./[HA]control×100)−100 4.4.2 Results of the Assay of Hyaluronic Acid on the Line of Human Keratinocytes HaCaT

MMP-1 = assay: Gene expression of MMP-1 in human dermal fibroblasts treated with H2O2 (real-time PCR); type: cell-based; conditions: for RQ (relative quantity of mRNA) MMP-1 / % Inhibition of the level of mRNA expression MMP-1: 3 μM; for RQ (relative quantity of mRNA) MMP-1: senescent fibroblasts stimulated with H2O2, non-treated control = 1; for % Inhibition of the level of mRNA expression MMP-1: vs H2O2 alone
Experimental: (§1) To evidence the activity of the compounds of general formula (I) against skin ageing and against inflammation, the effect of these compounds was measured on the gene expression of MMP-1, MMP-3 and IL8 in human dermal fibroblasts treated with H2O2, thereby mimicking the process of cellular senescence. The effect of these compounds of general formula (I) was also measured on the synthesis of hyaluronic acid and on hyaluronidase activity. The stimulation of the synthesis of hyaluronic acid also allows skin hydration to be improved and/or restored (Bissett D L. J. Cosmet. Dermatol. 2006 Dec. 5(4): 309-15. Glucosamine: an ingredient with skin and other benefits).
(§2) Human dermal fibroblasts (isolated from discarded operative skin) were cultured in DMEM culture medium+10% FCS. The cells were pre-treated with vitamin C and the compound to be tested for 16 h at 37° C. and then stimulated with H2O2. The cells were then replaced in DMEM with vitamin C and dioctadeca-9,12-dienoate of (9Z,9′Z,12Z,12′Z)-2-(2,2-dimethyl-1,3-dioxolan-4-yl)-5-oxo-2,5-dihydrofuran-3,4-diyl. 72 hours after ending of stress, the fibroblasts entered into senescence: the senescent fibroblasts no longer proliferate but remain metabolically active (Hayflick, J. Invest. Dermatol., 73; 8-14, 1979). The cells were then lysed with the lysis buffer of the RNeasy® kit (QIAGEN).
(§3) The extracted RNAs were converted to complementary DNA following the indications of the Quantitect Reverse Transcription kit by Qiagen. Real-time PCR analyses were conducted using an iQ cycler fluorescence thermocycler (BIO-RAD).
(§4) The level of expression of the mRNAs coding for MMP-1, MMP-3, IL8 was analyzed using the real-time PCR technique. To normalize the level of expression of the gene of interest, the analysis strategy developed by Vandesompela et al., Genome Biol. 3: RESEARCH0034 (2002) was chosen. […] In our model, the three tested reference genes were the following: β-actin (Human β-actin), GAPDH (Human glyceraldehyde-3-phosphate dehydrogenase) and YWHAZ (Tyrosine-3-monooxygenase, tryptopgan-5-monooxygenase activation protein zeta polypeptide).
(§5) The first step normalizes the Ct values obtained for the gene of interest in relation to the Ct values obtained for the reference gene, for each experimental condition.
(§6) The following was therefore calculated: ΔCt=Ctgene of interest−Ctreference gene
(§7) The second step of the calculation determines the variation in the number of copies of the gene of interest during treatment. To do so ΔΔCt is calculated: ΔΔCt=ΔCtnon-treated NHF−ΔCttreated NHF
(§8) For the non-treated control, this QR is therefore equal to 1. It is then possible to calculate an induction or inhibition factor of the gene of interest compared with this control.
(§9) Statistical analysis was performed using a test called “one-way ANOVA”. Variance analysis using the Dunnett test then allows the comparing, for each of the analyzed genes, of the ΔCt values of normal adult fibroblasts with the compounds in the presence of H2O2 in both cases. This test then gives the “p value” characterizing the significance of the results obtained for both conditions The degree of significance was established as follows: • significant for p<0.05(*) • very significant for p<0.005(**) • highly significant for p<0.001(***) • non-significant for p>0.05. […]
(§10) It is also possible to calculate percentage inhibition of the level of expression of the different mRNAs by the active ingredients to be evaluated, using the formula: […]

MMP-3 = assay: Gene expression of MMP-3 in human dermal fibroblasts treated with H2O2 (real-time PCR); type: cell-based; conditions: for RQ (relative quantity of mRNA) MMP-3 / % Inhibition of the level of mRNA expression MMP-3: 3 μM; for RQ (relative quantity of mRNA) MMP-3: senescent fibroblasts stimulated with H2O2, non-treated control = 1; for % Inhibition of the level of mRNA expression MMP-3: vs H2O2 alone
Experimental: as §1, §2, §3, §4, §5, §6, §7, §8, §9, §10

B16-F10 cells = assay: Assay of melanin in B16-F10 cells (colorimetric, α-MSH stimulated); type: cell-based, murine; conditions: for inhibition at 10 µM / inhibition at 20 µM / inhibition at 50 µM / inhibition at 100 µM: B16-F10, 72 hours, read-out: Percentage inhibition of intracellular melanin
Experimental: Similarly, to evidence the depigmenting activity of the compounds of general formula (I) according to the invention, the effect of these compounds was measured on the synthesis of melanin by colorimetric assay on a cell line of murine melanomas: line B16-F10.
This is a test to measure the synthesis of melanin by colorimetric assay on a cell line of murine melanomas: line B16-F10. This test allows the evaluation of the depigmenting property of active ingredients.
The B16-F10 cells were seeded onto 96-well plates in DMEM medium supplemented with FCS (fetal calf serum) and incubated 24 hours at 37° C., 5% CO2. The cells were then stimulated with α-MSH (to stimulate the synthesis of melanin, the stimulation observed was about 150%) and treated 72 hours with the active ingredients to be tested. Each concentration of active ingredient was tested at least in triplicate. Total melanin followed by intracellular melanin dissolved in lysis buffer were then assayed by absorbency reading at 405 nm. The total proteins were determined in the lysate and the results are expressed in mg melanin/mg proteins. The percentage activity was calculated as follows: […]
A negative value indicates an inhibition, whereas a positive value indicates induced synthesis of melanin.

Row | Structure (SMILES) | Percentage stimulation of the synthesis of hyaluronic acid (keratinocytes HaCaT; 30 μM) [%] | Percentage stimulation of the synthesis of hyaluronic acid (keratinocytes HaCaT; 300 μM) [%] | Effect on the synthesis of hyaluronic acid (keratinocytes HaCaT; 30 and 300 μM) | RQ (relative quantity of mRNA) MMP-1 (MMP-1) | % Inhibition of the level of mRNA expression MMP-1 (MMP-1) | RQ (relative quantity of mRNA) MMP-3 (MMP-3) | % Inhibition of the level of mRNA expression MMP-3 (MMP-3) | inhibition at 10 µM (B16-F10 cells; Mus musculus) [%] | inhibition at 20 µM (B16-F10 cells; Mus musculus) [%] | inhibition at 50 µM (B16-F10 cells; Mus musculus) [%] | inhibition at 100 µM (B16-F10 cells; Mus musculus) [%] | Percentage stimulation of the synthesis of hyaluronic acid (keratinocytes HaCaT; 2 μM) [%] | Percentage stimulation of the synthesis of hyaluronic acid (keratinocytes HaCaT; 20 μM) [%] | Inhibition of MMP1 expression compared with ascorbic acid (MMP-1) | Inhibition of MMP3 expression compared with ascorbic acid (MMP-3) | Inhibition of the synthesis of intracellular melanin compared with vitamin C (B16-F10 cells) | IC50 (B16-F10 cells; Mus musculus, B16-F10, α-MSH stimulated, read-out: IC50 intracellular melanin) [µM]
1 | O=C1O[C@H]([C@@H](O)CO)C(O)=C1O [Ascorbic acid, ascorbic acid] | 9 | 19 | no effect | 3.2 | 18% | 3.5 | 50* % | -5 | 7 | 5 | 22 |  |  |  |  |  | 
2 | CCCCC/C=C\C/C=C\CCCCCCCC(=O)OC1=C(OC(=O)CCCCCCC/C=C\C/C=C\CCCCC)C(C2COC(C)(C)O2)OC1=O (stereo not shown) [Molecule 1, diactodeca-9,12-dienoate of (9Z,9′Z,12Z,12′Z)-2-(2,2-dimethyl-1,3-dioxolan-4-yl)-5-oxo-2,5-dihydrofuran-3,4-diyl] |  |  |  | 0.9 | 105*** % | 1.9 | 81*** % | 9 | 21 | 41 | 71 | 132 | 70 | more substantially inhibits the expression of MMP1, MMP3 and IL-8 than ascorbic acid | more substantially inhibits the expression of MMP1, MMP3 and IL-8 than ascorbic acid | greater than that of vitamin C | 67

— patent US8722729B2, “Unsaturated fatty acid monoesters and diesters on ascorbic acid and cosmetic uses thereof” (Pierre Fabre Dermo-Cosmetique, priority 2009, dated 2014)
